“And” between values parts separate entries of the source, which are not always exact repeats. Equal entries are not always repeated. “Also recorded” adds a separate entry of the source. Where two headings read alike, the source gives them in different places.
What was measured:
cells (nuclei count) = settings: for Relative cell count to DMSO controls, Average 1 μM / Relative cell count to DMSO controls, Average 5 μM / Relative cell count to DMSO controls, Average 10 μM / Relative cell count to DMSO controls, Average 25 μM / Relative cell count to DMSO controls, Average 50 μM: toxicity data, 100=DMSO control; for Toxicity Data, Average, Mean percentage relative to DMSO control: Average of Exp 1 (SMW491) and Exp 2 (SMW492); for Toxicity Data, Percentage Relative to Appropriate DMSO Control: single well; for Relative cell count to DMSO controls, Average (for correlation analysis): average value over the 5 tested concentrations (1 to 50 uM); for Toxicity Data: Average, Mean: average of Exp 1-3 (SMW475, SMW477, SMW478), n 9
SARS2 = format: cell-based, SARS-CoV-2; settings: for Infection Data, Average, Mean percentage infection relative to DMSO control: Average of Exp 1 (SMW491) and Exp 2 (SMW492); for Infection Data, Percentage Infection Relative to Appropriate DMSO Control: single well; for Infection Data, Percentage Infection Relative to Appropriate DMSO Control / Infection Data: Percentage Infection Relative to Appropriate DMSO Control: avg background subtraction; for Percentage Inhibition Average 1 μM / Screening data (Relative infection to DMSO controls) Average 1 μM: SARS2, 1 μM; for Screening data (Relative infection to DMSO controls) Average 1 μM / Screening data (Relative infection to DMSO controls) Average 5 μM / Screening data (Relative infection to DMSO controls) Average 10 μM / Screening data (Relative infection to DMSO controls) Average 25 μM / Screening data (Relative infection to DMSO controls) Average 50 μM / Average (relative infection to DMSO over the 5 tested concentrations): 100=DMSO control; for Percentage Inhibition Average 5 μM / Screening data (Relative infection to DMSO controls) Average 5 μM: SARS2, 5 μM; for Percentage Inhibition Average 10 μM / Screening data (Relative infection to DMSO controls) Average 10 μM: SARS2, 10 μM; for Percentage Inhibition Average 25 μM / Screening data (Relative infection to DMSO controls) Average 25 μM: SARS2, 25 μM; for Percentage Inhibition Average 50 μM / Screening data (Relative infection to DMSO controls) Average 50 μM: SARS2, 50 μM; for Average (relative infection to DMSO over the 5 tested concentrations): SARS2, average over 1 to 50 uM; for Infection Data: Percentage Infection Relative to Appropriate DMSO Control: replicate wells; for Infection Data: Average, Mean: average of Exp 1-3 (SMW475, SMW477, SMW478), n 9

COc1ccc(CNCCc2ccccc2F)c(OCC(O)CN2CCCC2)c1 (racemic) [SILCS43]
Relative cell count to DMSO controls, Average 1 μM (cells (nuclei count)): 154.73
Relative cell count to DMSO controls, Average 5 μM (cells (nuclei count)): 151.78
Relative cell count to DMSO controls, Average 10 μM (cells (nuclei count)): 132.39
Relative cell count to DMSO controls, Average 25 μM (cells (nuclei count)): 136.27
Relative cell count to DMSO controls, Average 50 μM (cells (nuclei count)): 0.01
Toxicity Data, Average, Mean percentage relative to DMSO control (cells (nuclei count); n=4, 1 uM): 154.73%
Toxicity Data, Average, Mean percentage relative to DMSO control (cells (nuclei count); n=4, 5 uM): 151.78%
Toxicity Data, Average, Mean percentage relative to DMSO control (cells (nuclei count); n=4, 10 uM): 132.39%
Toxicity Data, Average, Mean percentage relative to DMSO control (cells (nuclei count); n=4, 25 uM): 136.27%
Toxicity Data, Average, Mean percentage relative to DMSO control (cells (nuclei count); n=4, 50 uM): 0.01%
Toxicity Data, Percentage Relative to Appropriate DMSO Control (cells (nuclei count); Exp 1 (SMW491), 1 uM): 151% and 166%
Toxicity Data, Percentage Relative to Appropriate DMSO Control (cells (nuclei count); Exp 1 (SMW491), 5 uM): 130% and 166%
Toxicity Data, Percentage Relative to Appropriate DMSO Control (cells (nuclei count); Exp 1 (SMW491), 10 uM): 118% and 121%
Toxicity Data, Percentage Relative to Appropriate DMSO Control (cells (nuclei count); Exp 1 (SMW491), 25 uM): 121% and 136%
Toxicity Data, Percentage Relative to Appropriate DMSO Control (cells (nuclei count); Exp 1 (SMW491), 50 uM): 0%
Toxicity Data, Percentage Relative to Appropriate DMSO Control (cells (nuclei count); Exp 2 (SMW492), 1 uM): 156% and 145%
Toxicity Data, Percentage Relative to Appropriate DMSO Control (cells (nuclei count); Exp 2 (SMW492), 5 uM): 155% and 156%
Toxicity Data, Percentage Relative to Appropriate DMSO Control (cells (nuclei count); Exp 2 (SMW492), 10 uM): 145% and 146%
Toxicity Data, Percentage Relative to Appropriate DMSO Control (cells (nuclei count); Exp 2 (SMW492), 25 uM): 143% and 145%
Toxicity Data, Percentage Relative to Appropriate DMSO Control (cells (nuclei count); Exp 2 (SMW492), 50 uM): 0%
Relative cell count to DMSO controls, Average (for correlation analysis) (cells (nuclei count)): 115.04
SARS2 antiviral activity (SARS2): highest activity to date; also recorded: most potent
potency relative to UMB18 (more potent) (SARS2): 3-4
Infection Data, Average, Mean percentage infection relative to DMSO control (SARS2; n=4, 1 uM): 18.21%
Infection Data, Average, Mean percentage infection relative to DMSO control (SARS2; n=4, 5 uM): 6.50%
Infection Data, Average, Mean percentage infection relative to DMSO control (SARS2; n=4, 10 uM): 0.85%
Infection Data, Average, Mean percentage infection relative to DMSO control (SARS2; n=4, 25 uM): 6.12%
Infection Data, Average, Mean percentage infection relative to DMSO control (SARS2; n=4, 50 uM): −13.34%
Infection Data, Percentage Infection Relative to Appropriate DMSO Control (SARS2; Exp 1 (SMW491), 1 uM): 11.14% and 9.36%
Infection Data, Percentage Infection Relative to Appropriate DMSO Control (SARS2; Exp 1 (SMW491), 5 uM): 5.93% and 4.01%
Infection Data, Percentage Infection Relative to Appropriate DMSO Control (SARS2; Exp 1 (SMW491), 10 uM): 0.28% and −0.66%
Infection Data, Percentage Infection Relative to Appropriate DMSO Control (SARS2; Exp 1 (SMW491), 25 uM): 1.98% and −0.83%
Infection Data, Percentage Infection Relative to Appropriate DMSO Control (SARS2; Exp 1 (SMW491), 50 uM): −10.07%
Infection Data, Percentage Infection Relative to Appropriate DMSO Control (SARS2; Exp 2 (SMW492), 1 uM): 18.42% and 33.91%
Infection Data, Percentage Infection Relative to Appropriate DMSO Control (SARS2; Exp 2 (SMW492), 10 uM): 1.81% and 1.99%
Infection Data, Percentage Infection Relative to Appropriate DMSO Control (SARS2; Exp 2 (SMW492), 50 uM): −16.61%
Percentage Inhibition Average 1 μM (SARS2): 81.79%
Screening data (Relative infection to DMSO controls) Average 1 μM (SARS2): 18.21
Percentage Inhibition Average 5 μM (SARS2): 93.50%
Screening data (Relative infection to DMSO controls) Average 5 μM (SARS2): 6.50
Percentage Inhibition Average 10 μM (SARS2): 99.15%
Screening data (Relative infection to DMSO controls) Average 10 μM (SARS2): 0.85
Percentage Inhibition Average 25 μM (SARS2): 93.88%
Screening data (Relative infection to DMSO controls) Average 25 μM (SARS2): 6.12
Percentage Inhibition Average 50 μM (SARS2): 113.34%
Screening data (Relative infection to DMSO controls) Average 50 μM (SARS2): −13.34
Average (relative infection to DMSO over the 5 tested concentrations) (SARS2): 3.67
apparent IC50 (SARS2; racemic mixture): high nanomolar range

COc1ccc(C2NC(=O)NC(C)=C2C(=O)NCC2CCC2)cc1OC (centres unmarked) [SILCS64]
Relative cell count to DMSO controls, Average 1 μM (cells (nuclei count)): 103.13
Relative cell count to DMSO controls, Average 5 μM (cells (nuclei count)): 119.2
Relative cell count to DMSO controls, Average 10 μM (cells (nuclei count)): 92.78
Relative cell count to DMSO controls, Average 25 μM (cells (nuclei count)): 84.89
Relative cell count to DMSO controls, Average 50 μM (cells (nuclei count)): 75.66
Relative cell count to DMSO controls, Average (for correlation analysis) (cells (nuclei count)): 95.13
Percentage Inhibition Average 1 μM (SARS2): 20.42%
Screening data (Relative infection to DMSO controls) Average 1 μM (SARS2): 79.58
Percentage Inhibition Average 5 μM (SARS2): 66.48%
Screening data (Relative infection to DMSO controls) Average 5 μM (SARS2): 33.52
Percentage Inhibition Average 10 μM (SARS2): −11.17%
Screening data (Relative infection to DMSO controls) Average 10 μM (SARS2): 111.17
Percentage Inhibition Average 25 μM (SARS2): −30.68%
Screening data (Relative infection to DMSO controls) Average 25 μM (SARS2): 130.68
Percentage Inhibition Average 50 μM (SARS2): −58.69%
Screening data (Relative infection to DMSO controls) Average 50 μM (SARS2): 158.69
Average (relative infection to DMSO over the 5 tested concentrations) (SARS2): 102.73

CN(C)CCN(Cc1ccsc1)Cc1cccc(-c2ccsc2)c1 [SILCS20]
Toxicity Data: Average, Mean (cells (nuclei count); 1 uM): 96.85%
Relative cell count to DMSO controls, Average 1 μM (cells (nuclei count)): 96.85
Toxicity Data: Average, Mean (cells (nuclei count); 5 uM): 116.85%
Relative cell count to DMSO controls, Average 5 μM (cells (nuclei count)): 116.85
Toxicity Data: Average, Mean (cells (nuclei count); 10 uM): 138.88%
Relative cell count to DMSO controls, Average 10 μM (cells (nuclei count)): 138.88
Toxicity Data: Average, Mean (cells (nuclei count); 25 uM): 78.06%
Relative cell count to DMSO controls, Average 25 μM (cells (nuclei count)): 78.06
Toxicity Data: Average, Mean (cells (nuclei count); 50 uM): 7.37%
Relative cell count to DMSO controls, Average 50 μM (cells (nuclei count)): 7.37
Relative cell count to DMSO controls, Average (for correlation analysis) (cells (nuclei count)): 87.60
Infection Data: Percentage Infection Relative to Appropriate DMSO Control (SARS2; 1 uM, Exp 1 (SMW475)): 104.96% and 108.84% and 98.09%
Infection Data: Percentage Infection Relative to Appropriate DMSO Control (SARS2; 1 uM, Exp 2 (SMW477)): 151.25% and 151.34% and 136.14%
Infection Data: Percentage Infection Relative to Appropriate DMSO Control (SARS2; 1 uM, Exp 3 (SMW478)): 92.92% and 94.78% and 98.52%
Infection Data: Average, Mean (SARS2; 1 uM): 115.20%
Infection Data: Percentage Infection Relative to Appropriate DMSO Control (SARS2; 5 uM, Exp 1 (SMW475)): 71.77% and 48.90% and 69.38%
Infection Data: Percentage Infection Relative to Appropriate DMSO Control (SARS2; 5 uM, Exp 2 (SMW477)): 133.79% and 116.24% and 114.33%
Infection Data: Percentage Infection Relative to Appropriate DMSO Control (SARS2; 5 uM, Exp 3 (SMW478)): 62.84% and 53.65% and 64.98%
Infection Data: Average, Mean (SARS2; 5 uM): 81.76%
Infection Data: Percentage Infection Relative to Appropriate DMSO Control (SARS2; 10 uM, Exp 1 (SMW475)): 45.14% and 27.86% and 26.38%
Infection Data: Percentage Infection Relative to Appropriate DMSO Control (SARS2; 10 uM, Exp 2 (SMW477)): 76.01% and 46.79% and 30.46%
Infection Data: Percentage Infection Relative to Appropriate DMSO Control (SARS2; 10 uM, Exp 3 (SMW478)): 30.07% and 13.27% and 56.68%
Infection Data: Average, Mean (SARS2; 10 uM): 39.18%
Infection Data: Percentage Infection Relative to Appropriate DMSO Control (SARS2; 25 uM, Exp 1 (SMW475)): 13.25% and 8.47% and 6.46%
Infection Data: Percentage Infection Relative to Appropriate DMSO Control (SARS2; 25 uM, Exp 2 (SMW477)): 9.75% and 7.72% and 7.01%
Infection Data: Percentage Infection Relative to Appropriate DMSO Control (SARS2; 25 uM, Exp 3 (SMW478)): 6.76% and 9.52% and 8.68%
Infection Data: Average, Mean (SARS2; 25 uM): 8.63%
Infection Data: Percentage Infection Relative to Appropriate DMSO Control (SARS2; 50 uM, Exp 1 (SMW475)): −0.47% and 0.47% and 1.44%
Infection Data: Percentage Infection Relative to Appropriate DMSO Control (SARS2; 50 uM, Exp 2 (SMW477)): −0.57% and −0.19% and −1.43%
Infection Data: Percentage Infection Relative to Appropriate DMSO Control (SARS2; 50 uM, Exp 3 (SMW478)): 125.56% and 159.57% and 149.88%
Infection Data: Average, Mean (SARS2; 50 uM): 48.15%
Percentage Inhibition Average 1 μM (SARS2): −15.20%
Screening data (Relative infection to DMSO controls) Average 1 μM (SARS2): 115.20
Percentage Inhibition Average 5 μM (SARS2): 18.24%
Screening data (Relative infection to DMSO controls) Average 5 μM (SARS2): 81.76
Percentage Inhibition Average 10 μM (SARS2): 60.82%
Screening data (Relative infection to DMSO controls) Average 10 μM (SARS2): 39.18
Percentage Inhibition Average 25 μM (SARS2): 91.37%
Screening data (Relative infection to DMSO controls) Average 25 μM (SARS2): 8.63
Percentage Inhibition Average 50 μM (SARS2): 51.85%
Screening data (Relative infection to DMSO controls) Average 50 μM (SARS2): 48.15
Average (relative infection to DMSO over the 5 tested concentrations) (SARS2): 58.58
